Literature values as cited in PMC5941251 (Molecular Pharmaceutics, 2018).

CC1(C)C(/C=C/C=C/C=C/C=C2\N(CCCCS(=O)(=O)O)c3ccc4ccccc4c3C2(C)C)=[N+](CCCCS(=O)(=O)[O-])c2ccc3ccccc3c21 [ICG, indocyanine green]
risk of anaphylactic shock: 0.05–0.2%
